Experimental data: ChEMBL document CHEMBL5052821, “Galactokinase inhibitors for the treatment and prevention of associated diseases and disorders” (2019)
Activity calls are given as the source filed them. The rule behind the calls is not given here.

Assays:
Bacteria = experiment: Inhibition of bacterial CDP-ME kinase assessed as ATP depletion up to 57 uM measured by bioluminescent kinase Glo assay; conditions: dose microM <=57
HEK293 = experiment: Cytotoxicity against human HEK293 cells measured after 48 hrs by Cell Titer Glo assay; type: toxicity, cell-based; conditions: hek293, 48 h

Row | SMILES | inhibition (Bacteria) | Activity (HEK293)
1 | CC1=C(C(=O)Nc2ccc(C)cc2)C(c2ccccc2Br)N=C(Nc2nc3ccccc3o2)N1 (stereo not given) | inactive | 
2 | O=C1CCCC2=C1C(c1c(Cl)cccc1Cl)N=C(Nc1nc3ccccc3o1)N2 (stereo not given) | inactive | 
3 | CNC(=O)C1=C(C)NC(Nc2nc3ccccc3o2)=NC1c1n[nH]cc1Cl (stereo not given) | inactive | 
4 | O=C1CCC2=C1C(c1ccccc1Cl)N=C(Nc1nc3ccccc3o1)N2 (stereo not given) | inactive | 
5 | CC1=C(C(=O)Nc2nnc(-c3ccccc3)s2)C(c2n[nH]cc2Cl)N=C(Nc2nc3ccccc3o2)N1 (stereo not given) | inactive | 
6 | Cc1cc(C2N=C(Nc3nc4ccccc4o3)NC3=C2C(=O)CCC3)n[nH]1 (stereo not given) | inactive | 
7 | CC1=C(C(=O)Nc2nc3ccccc3s2)C(c2nn(C)cc2Cl)N=C(Nc2nc3ccccc3o2)N1 (stereo not given) | inactive | 
8 | Cn1c(NC2=NC3(CCCC3)C3=C(CCCC3=O)N2)nc2ccccc21 | inactive | Non-Toxic
9 | O=C1CCCC2=C1C(c1cccc(F)c1)N=C(Nc1nc3ccccc3o1)N2 (stereo not given) | inactive | 
10 | O=C1CCCC2=C1C(c1ccncc1Br)N=C(Nc1nc3ccccc3o1)N2 (stereo not given) | inactive | 
11 | O=C1CCCC2=C1C1(CCCC1)N=C(Nc1nc3cc(-c4ccccc4)ccc3o1)N2 | inactive | 
12 | COc1cccc(C2N=C(Nc3nc4ccccc4o3)NC3=C2C(=O)CCC3)c1 (stereo not given) | inactive | 
13 | O=C1CCCC2=C1C(c1cccnc1Cl)N=C(Nc1nc3ccccc3o1)N2 (stereo not given) | inactive | 
14 | O=C1CCCC2=C1C(c1ncccc1Br)N=C(Nc1nc3ccccc3o1)N2 (stereo not given) | inactive | 
15 | CNC(=O)C1=C(C)NC(Nc2nc3ccccc3o2)=NC1c1nn(C)cc1Cl (stereo not given) | inactive | 
16 | CC1=C(C(=O)Nc2noc3ccccc23)C(c2nn(C)cc2Cl)N=C(Nc2nc3ccccc3o2)N1 (stereo not given) | inactive | 
17 | CC1=C(C(=O)Nc2ccccc2C)C(c2ccccc2Br)N=C(Nc2nc3ccccc3o2)N1 (stereo not given) | inactive | 
18 | O=C1CCCC2=C1C(c1ccccc1)N=C(Nc1nc3ccccc3o1)N2 (stereo not given) | inactive | 
19 | CC1=C(C(=O)Nc2ccon2)C(c2ccccc2Br)N=C(Nc2nc3ccccc3o2)N1 (stereo not given) | inactive | 
20 | O=C1CCCC2=C1C1(CCCOC1)N=C(Nc1nc3ccccc3o1)N2 (stereo not given) | inactive | 
21 | CC1=C(C(=O)NC2CC2)C(c2nn(C)cc2Cl)N=C(Nc2nc3ccccc3o2)N1 (stereo not given) | inactive | 
22 | O=C1CCCC2=C1[C@@]1(CCC(c3ccccc3)C1)N=C(Nc1nc3ccccc3o1)N2 (stereo not given in full) | inactive | 
23 | O=C1CCCC2=C1C(c1ccc(Cl)cc1)N=C(Nc1nc3ccccc3o1)N2 (stereo not given) | inactive | 
24 | O=C1CCCC2=C1C(c1cccc(Cl)c1)N=C(Nc1nc3ccccc3o1)N2 (stereo not given) | inactive | 
25 | O=C1CCCC2=C1C(c1ccccc1Br)N=C(Nc1nc3ccccc3o1)N2 (stereo not given) | inactive | 

Row | SMILES | inhibition (Bacteria) | Activity (HEK293)
26 | O=C1CCC2=C1C1(CCCC1)N=C(Nc1nc3ccccc3o1)N2 | inactive | Non-Toxic
27 | O=C1CCCC2=C1C(c1ccccc1C(F)(F)F)N=C(Nc1nc3ccccc3o1)N2 (stereo not given) | inactive | 
28 | O=C1CCCC2=C1C(c1ccc(F)cc1)N=C(Nc1nc3ccccc3o1)N2 (stereo not given) | inactive | 
29 | O=C1CCCC2=C1C(c1ccn[nH]1)N=C(Nc1nc3ccccc3o1)N2 (stereo not given) | inactive | 
30 | CC1(C)N=C(Nc2nc3ccccc3o2)NC2=C1C(=O)CCC2 | inactive | 
31 | O=C1CCCC2=C1C1(CCCC1)N=C(Nc1nc3cc4ccccc4cc3o1)N2 | inactive | Non-Toxic
32 | Cc1cccc(C2N=C(Nc3nc4ccccc4o3)NC3=C2C(=O)CCC3)c1 (stereo not given) | inactive | 
33 | Cc1ccc2oc(NC3=NC4(CCCC4)C4=C(CCCC4=O)N3)nc2c1 | inactive | Non-Toxic
34 | CCC1CCC2(C1)N=C(Nc1nc3ccccc3o1)NC1=C2C(=O)CCC1 (stereo not given) | inactive | 
35 | COc1ccc(NC(=O)C2=C(C)NC(Nc3nc4ccccc4o3)=NC2c2ccccc2Br)cc1 (stereo not given) | inactive | 
36 | O=C1CCCC2=C1C1(CCC1)N=C(Nc1nc3ccccc3o1)N2 | inactive | Non-Toxic
37 | CC1=C(C(=O)Nc2nc3ccccc3s2)C(c2n[nH]cc2Cl)N=C(Nc2nc3ccccc3o2)N1 (stereo not given) | inactive | 
38 | O=C1CCCC2=C1C(c1cccnc1)N=C(Nc1nc3ccccc3o1)N2 (stereo not given) | inactive | 
39 | O=C1CCCC2=C1C1(CCOCC1)N=C(Nc1nc3ccccc3o1)N2 | inactive | 
40 | O=C1CCCC2=C1C(c1ccncc1)N=C(Nc1nc3ccccc3o1)N2 (stereo not given) | inactive | 
41 | Cc1ccc2nc(NC3=NC4(CCCC4)C4=C(CCCC4=O)N3)oc2c1 | inactive | Non-Toxic
42 | O=C1CCCC2=C1C(c1cnccc1C(F)(F)F)N=C(Nc1nc3ccccc3o1)N2 (stereo not given) | inactive | 
43 | O=C1CCCC2=C1C1(CCCC1)N=C(Nc1nc3ccccc3o1)N2 | inactive | Non-Toxic
44 | CC1(C)CC(=O)C2=C(C1)NC(Nc1nc3ccccc3o1)=NC21CCCC1 | inactive | Non-Toxic
45 | CC1=C(C(=O)N(C)c2ccccc2C)C(c2ccccc2Br)N=C(Nc2nc3ccccc3o2)N1 (stereo not given) | inactive | 
46 | CC1=C(C(=O)n2ccc3ccccc32)C(c2ccccc2Br)N=C(Nc2nc3ccccc3o2)N1 (stereo not given) | inactive | 
47 | O=C1CCCC2=C1C(c1ncccc1C(F)(F)F)N=C(Nc1nc3ccccc3o1)N2 (stereo not given) | inactive | 
48 | CC1=C(C(=O)Nc2nncs2)C(c2nn(C)cc2Cl)N=C(Nc2nc3ccccc3o2)N1 (stereo not given) | inactive | 
49 | CC1=C(C(=O)Nc2ccon2)C2(CCCC2)N=C(Nc2nc3ccccc3o2)N1 | inactive | 
50 | O=C1CCCC2=C1C(c1ccccc1I)N=C(Nc1nc3ccccc3o1)N2 (stereo not given) | inactive | 

Continued, in another order:

Row | inhibition (Bacteria) | SMILES | Activity (HEK293)
51 | inactive | O=C1CCCC2=C1C(c1n[nH]cc1Br)N=C(Nc1nc3ccccc3o1)N2 (stereo not given) | 
52 | inactive | CC1=C(C(=O)Nc2ccccc2)C(c2ccccc2Br)N=C(Nc2nc3ccccc3o2)N1 (stereo not given) | 
53 | inactive | O=C1CCCC2=C1C(c1n[nH]cc1Cl)NC(Nc1nc3ccccc3o1)=N2 (stereo not given) | 
54 | inactive | CC1=C(C(=O)NC2CCCC2)C(c2n[nH]cc2Cl)N=C(Nc2nc3ccccc3o2)N1 (stereo not given) | 
55 | inactive | O=C1CCCC2=C1C1(CCS(=O)(=O)C1)N=C(Nc1nc3ccccc3o1)N2 (stereo not given) | 
56 | inactive | O=C1CCCC2=C1C(c1cccc(C(F)(F)F)c1)N=C(Nc1nc3ccccc3o1)N2 (stereo not given) | 
57 | inactive | CNC(=O)C1=C(C)NC(Nc2nc3ccccc3o2)=NC12CCCC2 | 
58 | inactive | O=C1CC(c2ccccc2)CC2=C1C1(CCCC1)N=C(Nc1nc3ccccc3o1)N2 (stereo not given) | 
59 | inactive | Cc1ccc(C2N=C(Nc3nc4ccccc4o3)NC3=C2C(=O)CCC3)cc1 (stereo not given) | 
60 | inactive | CC1(C)CC(=O)C2=C(C1)NC(Nc1nc3ccccc3o1)=NC21CCCCC1 | 
61 | inactive | CC1=C(C(=O)N(C)C)C(c2ccccc2Br)N=C(Nc2nc3ccccc3o2)N1 (stereo not given) | 
62 | inactive | CC1=C(C(=O)Nc2nc3ccccc3s2)C2(CCCC2)N=C(Nc2nc3ccccc3o2)N1 | 
63 | inactive | CC1=C(C(=O)NC2CCCCC2)C(c2ccccc2Br)N=C(Nc2nc3ccccc3o2)N1 (stereo not given) | 
64 | inactive | CC1=C(C(=O)Nc2ccon2)C(c2nn(C)cc2Cl)N=C(Nc2nc3ccccc3o2)N1 (stereo not given) | 
65 | inactive | O=C1CCCC2=C1C(c1cccnc1Br)N=C(Nc1nc3ccccc3o1)N2 (stereo not given) | 
66 | inactive | O=C1CCCC2=C1C1(CCSCC1)N=C(Nc1nc3ccccc3o1)N2 | 
67 | inactive | Cn1cc(Br)c(C2N=C(Nc3nc4ccccc4o3)NC3=C2C(=O)CCC3)n1 (stereo not given) | 
68 | inactive | CN(C)c1ccc(C2N=C(Nc3nc4ccccc4o3)NC3=C2C(=O)CCC3)cc1 (stereo not given) | 
69 | inactive | O=C1CCCC2=C1C(c1ccccc1Cl)N=C(Nc1nc3ccccc3o1)N2 (stereo not given) | 
70 | inactive | O=C1CCCC2=C1C(c1ccncc1Cl)N=C(Nc1nc3ccccc3o1)N2 (stereo not given) | 

Row | inhibition (Bacteria) | SMILES | Activity (HEK293)
71 | inactive | Cc1ccsc1C1N=C(Nc2nc3ccccc3o2)NC2=C1C(=O)CCC2 (stereo not given) | 
72 | inactive | O=C1CC(c2ccccc2)CC2=C1C1(CCCCC1)N=C(Nc1nc3ccccc3o1)N2 (stereo not given) | Non-Toxic
73 | inactive | O=C1CCCC2=C1C1(CCCC1)N=C(Nc1nc3cc(Br)ccc3o1)N2 | Non-Toxic
74 | inactive | CC1=C(C(=O)Nc2nncs2)C2(CCCC2)N=C(Nc2nc3ccccc3o2)N1 | 
75 | inactive | Cn1ncc(Cl)c1C1N=C(Nc2nc3ccccc3o2)NC2=C1C(=O)CCC2 (stereo not given) | 
76 | inactive | CC1CCC2(C1)N=C(Nc1nc3ccccc3o1)NC1=C2C(=O)CCC1 (stereo not given) | 
77 | inactive | O=C1CCCC2=C1C1(CCSC1)N=C(Nc1nc3ccccc3o1)N2 (stereo not given) | 
78 | inactive | CC1=C(C(=O)Nc2ccc(Cl)cc2)C(c2ccccc2Br)N=C(Nc2nc3ccccc3o2)N1 (stereo not given) | 
79 | inactive | CC1=C(C(=O)Nc2nccs2)C(c2ccccc2Br)N=C(Nc2nc3ccccc3o2)N1 (stereo not given) | 
80 | inactive | CC1=C(C(=O)Nc2nncs2)C(c2ccccc2Br)N=C(Nc2nc3ccccc3o2)N1 (stereo not given) | 
81 | inactive | COc1ccccc1C1N=C(Nc2nc3ccccc3o2)NC2=C1C(=O)CCC2 (stereo not given) | 
82 | inactive | O=C1CCCC2=C1C1(CCCC1)N=C(Nc1nc3ccccc3n1Cc1ccccc1)N2 | 
83 | inactive | Cc1ccc(C2N=C(Nc3nc4ccccc4o3)NC3=C2C(=O)CCC3)s1 (stereo not given) | 
84 | inactive | CC1=C(C(=O)NCc2ccccc2)C(c2ccccc2Br)N=C(Nc2nc3ccccc3o2)N1 (stereo not given) | 
85 | inactive | COc1ccc(C2N=C(Nc3nc4ccccc4o3)NC3=C2C(=O)CCC3)cc1 (stereo not given) | 
86 | inactive | O=C1CCCC2=C1C1(CCCC1)N=C(Nc1nc3cc(Cl)ccc3o1)N2 | Non-Toxic
87 | inactive | CC1=C(C(=O)Nc2nc3ccccc3o2)C2(CCCC2)N=C(Nc2nc3ccccc3o2)N1 | 
88 | inactive | CC1=C(C(=O)NC2CC2)C(c2n[nH]cc2Cl)N=C(Nc2nc3ccccc3o2)N1 (stereo not given) | 
89 | inactive | COc1ccccc1NC(=O)C1=C(C)NC(Nc2nc3ccccc3o2)=NC1c1ccccc1Br (stereo not given) | 
